Results as given in article PMC12677652, “Procyanidin B3 and Its Derivatives Alleviate Neuronal Injury by Targeting G3BP1 for Ischemic Stroke Therapy” (Advanced Science, 2025).
Read-outs that look alike come from different tables or passages of the source.

Key:
[1] = Brain and plasma concentrations after MCAO/reperfusion (BBB assessment); format: in vivo, mice; settings: C57BL/6, mouse, ip, 0.5 h after administration, 48 mg kg^−1 i.p., after 1.5 h of MCAO followed by reperfusion; for Kp at 0.5 h: brain / plasma, read-out: CBrain/Cplasma
Description: After 1.5 h of MCAO followed by reperfusion, each of 1 and 6c was administered at a dose of 48 mg kg^−1 intraperitoneally to mice, and the brain and plasma concentrations of each compound were measured at 0.5 h after administration. The ratios of brain to plasma concentrations of 1 and 6c were 0.37 and 0.57, respectively, confirming that the BBB permeability of compounds benefited from higher lipophilicity (Table 2 ). The decrease in 6c concentration in vivo may be due to changes in metabolic routes. Tertiary carbon atoms and terminal carbon atoms are easily metabolized through oxidative pathways,^[ [55] ^] so the introduction of isopropyl groups leads to the production of more metabolites, resulting in a decrease in the area under curve (AUC). The metabolites of oligomeric proanthocyanidins and their analogues are quite complex. Although there are a large number of metabolites, most of them have a flavan‐3‐ol core structure and contain many phenolic hydroxyl groups.^[ [56] ^] As mentioned above, phenolic hydroxyl groups are important active functional groups to exert neuroprotective effects, so it can be inferred that metabolites of 6c also have similar activity to 6c. In future work, radiolabeled pharmacokinetic studies and metabolite studies are needed to further elucidate the metabolism of the preferred compound.^[ [57] ^] Pharmacokinetic analyses were performed using a LC‐40D XS HPLC system (Shimadzu, Japan) coupled with a Sciex Triple Quad 5500 mass spectrometer (AB SCIEX, USA). Tested compounds PB3 and 6c were administered by i.p. injection (48 mg kg^−1, formulation solvent: normal saline). Blood samples were drawn from the retro‐orbital vein at 0.083, 0.25, 0.5, 1, 2, 4, 8, and 24 h post‐injection with EDTA dipotassium salt as an anticoagulant. Subsequently, the plasma fractions were collected in Eppendorf tubes and centrifuged at 4000 g for 5 min at 4 °C and stored at −80 °C for analysis. Brain tissue was mixed with four‐fold normal saline for homogenization (10 s per time with a 10 s interval for 3–5 times). Then, the mixture was centrifuged at 4000 g for 5 min at 4 °C, and the supernatant was stored at −80 °C for analysis. For sample preparation, the desired serial concentrations of working solutions were achieved by diluting a stock solution of analyte with 50% methanol in water solution. 2 µL of working solutions were added to 10 µL of the blank C57BL/6 mouse plasma/brain homogenate to achieve calibration standards of 10–10 000 ng mL^−1 (10, 20, 100, 200, 1000, 2000, 4000, 10 000 ng mL^−1) in a total volume of 12 µL. Three quality control samples at 20 ng mL^−1, 1600 ng mL^−1, and 8000 ng mL^−1 for plasma were prepared independently of those used for the calibration curves. These QC samples were prepared on the day of analysis in the same way as calibration standards.

[2] = test system: G3BP1 knockdown HT22 cells; assay: Activity of PB3 in G3BP1 knockdown (siRNA) HT22 cells; format: cell-based; settings: PB3 50 µM
Description: The CCK‐8 assay kit (Yeasen, China) was used to assess cell viability. All operations were performed following instructions. HT22 cells were seeded into the 96‐well plate (3000 cells per well). The cells were cultured at 37 °C with 5% CO2 in a humidified incubator overnight. After 6 h of OGD, the medium was replaced by DMEM/F‐12 with 10% FBS and 1% penicillin/streptomycin containing PB3 or other compounds and kept in a humidified 5% CO2, 37 °C incubator for 24 h. Then, the cells were washed with PBS, the medium was replaced with DMEM/F‐12 with 10% FBS and 1% penicillin/streptomycin containing 10% CCK‐8 solution, and incubated for 1 h at 37 °C. The absorbance was assessed by a Synergy H1 multi‐mode microplate reader (BioTek, USA) at 450 nm.
Apoptosis level was evaluated by TUNEL staining and flow cytometry. For TUNEL staining, HT22 cells were treated with 4% paraformaldehyde for 15 min. […] Red fluorescence was utilized to identify apoptotic cells, while 4′, 6‐diamidino‐2‐phenylindole (DAPI) was used to counterstain the nuclei. The fluorescence microscope (Carl Zeiss, Germany) was used to obtain images. For flow cytometry, apoptotic cells were determined with the Annexin V‐Alexa Fluor 488/PI apoptosis detection kit (Yeasen, China) by following the instructions. […] Cell apoptosis was immediately determined by Cytek Aurora (Cytek Biosciences, USA). […]

[3] = test system: eIF2α phosphatases (GADD34 and PPP1R15B/CReP) and eIF2α kinases (PERK and GCN2); assay: RT-qPCR of key factors regulating SG dynamics; format: cell-based; settings: 50 µM, 6 h of reperfusion following OGD, HT22 cells
Description: Total RNA from HT22 cells was extracted with Trizol. The concentration and purity of RNA were determined by Nanodrop (Thermo Scientific, USA), and RNA was reverse transcribed by PrimeScript Reverse Transcription Master Mix (TaKaRa, Japan). Then RT‐qPCR was performed using Hieff qPCR SYBR Green Master Mix (Yeasen, China). The expression level of the transcripts was normalized to the constitutive expression level of β‐actin. The primers used for amplification are listed in Table S4 (Supporting Information).

| Kp at 0.5 h [1] | concentration at 0.5 h ([1]; brain, read-out: CBrain) [ng/g] | concentration at 0.5 h ([1]; plasma, read-out: Cplasma) [ng/mL] | SMILES | cell viability, effect of G3BP1 knockdown [2] | rate of TUNEL‐positive cells [2] | expression of eIF2α phosphatases (GADD34 and PPP1R15B/CReP) [3] | expression of two eIF2α kinases (PERK and GCN2) [3] |
| --- | --- | --- | --- | --- | --- | --- | --- |
| 0.37 | 4790 ± 1610 | 13000 ± 757 | Oc1cc(O)c2c(c1)O[C@H](c1ccc(O)c(O)c1)[C@@H](O)[C@@H]2c1c(O)cc(O)c2c1O[C@H](c1ccc(O)c(O)c1)[C@@H](O)C2 [Compound 1, procyanidin B3] | inhibited the neuroprotective effects | not significantly changed | significantly lower | significantly higher |
| 0.57 | 2810 ± 489 | 4960 ± 1590 | CC(C)c1c(O)cc(O)c2c1O[C@H](c1ccc(O)c(O)c1)[C@@H](O)[C@@H]2c1c(O)cc(O)c2c1O[C@H](c1ccc(O)c(O)c1)[C@@H](O)C2 [Compound 6c, 8‐Isopropyl‐(+)‐Catechin‐(4α,8)‐(+)‐Catechin] |  |  |  |  |
